In US20210236512A1 (ZARODEX THERAPEUTICS LIMITED, priority 2018, published 2021):
Where “and” joins values, the source holds several entries; their conditions need not be identical. Equal entries are not always repeated. Entries after “also recorded” stand apart in the source; their conditions may differ. Where two headings read alike, the source gives them in different places.

Experiments:
[1] = system: class switched memory B cells (CSMB), plasmablasts and other B cell subsets; settings: for CSMB after clozapine stopped: one patient, after 24 months
[2] = system: B cell subsets in spleen and inguinal lymph nodes; assay: Mouse CIA model: B cell subsets in spleen and lymph nodes by FACS; format: in vivo, DBA/1 mice
[3] = system: B cell subsets and T cells in spleen; assay: Wild type mouse study: spleen immunophenotyping by flow cytometry
[4] = system: total peripheral blood B-cells isolated from healthy donors; format: cell-based, human; settings: clozapine 25-350 ng/ml, norclozapine 15-200 ng/ml, haloperidol 2-25 ng/ml
Experimental: The experiment was performed from four independent donors.

[5] = mouse, in vivo
[6] = human, in vivo; cited from earlier work
[7] = system: serum/plasma IgG, IgA, IgM; settings: cited from earlier work
[8] = system: B cell subsets in bone marrow; assay: Wild type mouse study: bone marrow B cell immunophenotyping by flow cytometry
[9] = system: circulating B cell subsets; assay: Second observational study (interim analysis): circulating B cell subsets by FACS; format: in vivo, human
[10] = system: Vaccine specific-IgG (Haemophilus influenza B, Pneumococcus, Tetanus); settings: human, in vivo
[11] = system: Specific antibody titres against Haemophilus influenzae, Tetanus and Pneumococcal capsular polysaccharide; design: species or system human; settings: in vivo
[12] = system: Immunoglobulins (IgG, IgA, IgM); assay: Immunological assessment of referred patients taking clozapine: serum immunoglobulins; format: in vivo, human; settings: for Serum IgG after clozapine stopped: 24 months after discontinuation; for Serum IgG at discontinuation of clozapine: starting value before recovery;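 as to Serum IgA, individual referred patient: serum IgA in g/L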;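 as to Serum IgG at discontinuation of clozapine: serum IgG in g/L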;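 as to Serum IgG, individual referred patient: serum IgG in g/L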;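 as to Serum IgM, individual referred patient: serum IgM in g/L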
[13] = system: T follicular helper cells and T regulatory cells; assay: Mouse CIA model: T follicular helper and T regulatory cells in spleen and lymph node by flow cytometry; format: in vivo, DBA/1 mice
[14] = system: collagen-induced arthritis (CIA); assay: Mouse collagen-induced arthritis (CIA) model: onset, clinical score and paw-swelling; format: in vivo, DBA/1 mice
Excerpt: Adult (age 13-15 weeks) DBA/1 male mice were purchased from Envigo (Horst, Netherlands). […] 1. […] All experiments were approved by the Clinical Medicine Animal Welfare and Ethical Review Body (AWERB) and by the UK Home Office. DBA/1 mice were immunised with bovine type II collagen in CFA and monitored daily for onset of arthritis. […] Controls received vehicle (saline) alone. Treatment of mice commenced in one experiment on day 1 after immunisation and in a second experiment on day 15 after immunisation. Clinical scores and paw-swelling were monitored for 10 days following onset of arthritis. A clinical scoring system was used as follows. Arthritis severity was scored by an experienced, non-blinded investigator as follows: 0=normal, 1=slight swelling and/or erythema, 2=pronounced swelling, 3=ankylosis. […] Data were analyzed by one-way ANOVA with Tukey's or Dunnett's multiple comparison test or two-way ANOVA with Tukey's multiple comparison test as appropriate. All calculations were made using GraphPad Prism software.

[15] = clozapine treatment for six weeks (Hinze-Selch et al., 1998)
[16] = one line per patient of Table 3

CN1CCN(C2=Nc3cc(Cl)ccc3Nc3ccccc32)CC1 [Clozapine, clozapine]
Marginal zone B cell numbers vs healthy control ([1]; FIG. 3B): no significant difference
Total B cell numbers vs CVID and healthy controls ([1]; FIG. 3B): similar
CSMB (reference range 6.5-29.1%), individual referred patient ([1]; class switched memory B cells as % of total CD19+ cells, one line per patient of Table 3, listed as clozapine): 1.58%
Overall lymphopenia or B cell lymphopenia ([1]; human, in vivo): no severe overall lymphopenia or B cell lymphopenia
CSMB after clozapine stopped [1]: CSM Brose to 2.77%
CSMB after clozapine stopped ([1]; listed as clozapine): 2.77%
Mean CSMB (reference range 6.5-29.1%) ([1]; referred clozapine-treated patients, p<0.0001 vs healthy controls): 1.87%
Proportion of B220+ B cells in spleen ([2]; 10 mg/kg from day 1): significantly reduced
Proportion of plasma cells in spleen ([2]; 10 mg/kg given on day 1): significant reduction
Level of GL7 expression on follicular B cells in lymph node ([2]; all clozapine treatment groups vs vehicle, dose- and time-dependent): significantly decreased
Percentage of B220+ B cells in lymph nodes ([2]; all doses and time points (5 or 10 mg/kg from day 1 or day 15)): significantly lower
Lymph node follicular B cells (B220+IgD-Fas+GL7hi) ([2]; all doses/both time points): Strikingly significant reductions
Plasma cell numbers in lymph node ([2]; all doses/times): no significant effect
Plasma cells as a proportion of live cells in spleen compared to control ([2]; every other dose/time evaluated): nominally lower values
Other splenic cell populations (B220-TCR-b-) ([3]; 5 mg/kg and 10 mg/kg): No effect
Percentage of splenic T cells ([3]; 5 mg/kg and 10 mg/kg): reciprocal increase
Percentage of splenic B cells (B220+TCR-b-) as a proportion of total live splenocytes ([3]; 5 mg/kg and 10 mg/kg IP, 21 days): significantly lower
Proportion of T2 B cells in the spleen ([3]; across all doses of clozapine): small increase
Activated T cells (B220+TCR-b+) in spleen vs control ([3]; clozapine 2.5-10 mg/kg): reduced in dose-dependent fashion
Splenic follicular or marginal zone B cell subsets ([3]; clozapine IP, 21 days): no specific reductions
Proportion of transitional stage 1 (T1) B cells in the spleen ([3]; including at the 2.5 mg/kg dose): mildly reduced
Germinal centre cells in the spleen vs control or haloperidol ([3]; steady state): no differences
Functional or phenotypic maturation of activated B cells to an early PC state [4]: no consistent inhibitory effect
Ability of differentiated ASCs to secrete antibody (total IgM/IgG ELISA) ([4]; day 6 and day 9): no consistent effect
Effects on thermoregulation [5]: effects on thermoregulation were also evident
Sedative effects ([5]; ip, 5 mg/kg): Clear dose-related sedative effects
Previously treatment refractive schizophrenia patients in whom effective [6]: approximately 60%
IgA, IgG, absolute neutrophil count and white blood cell count vs control group ([7]; Lozano et al., 2016): no differences
IgA or IgM concentrations or pattern of autoantibodies [7, 15]: no significant effect
Serum concentrations of IgG [7, 15]: significant increases
Mean plasma levels of IgM vs control group ([7]; outpatients on clozapine for at least five years (Lozano et al., 2016)): overall decrease
Pro-B cell fraction in bone marrow ([8]; 10 mg/kg IP, 21 days): without any change
Proportion of pre-pro B cells in bone marrow ([8]; 10 mg/kg IP, 21 days): significant increase
Reduction in the percentage of long-lived plasma cells in the bone marrow compared to control ([8]; 5 and 10 mg/kg IP, 21 days, significant): ~30%
B cells in the bone marrow (BM), overall ([8]; any dose of clozapine (2.5, 5, 10 mg/kg IP, 21 days)): No overall reduction
Percentage of immature B cells in bone marrow ([8]; clozapine IP, 21 days): reduction
Pre-B cells in bone marrow ([8]; dose-dependent, significant vs control even at 2.5 mg/kg): reduction
Percentage of pre-B cells that were proliferating ([8]; reaching significance for the 5 mg/kg dose): diminished
Overall CD19+ B cell numbers vs control ([9]; FIG. 8A-B): not significantly different
Naive (CD19+ CD27-) B cells as a proportion of total CD19+ B cells ([9]; FIG. 9A-C): Small increase
Overall memory B cell pool or IgMhi IgDlo memory B cell subpopulation ([9]; FIG. 10A-C, 12A-C): without perturbation
Circulating levels of transitional B cells or marginal zone B cells ([9]; FIG. 13A-C, 14A-C): No significant difference
Class-switched memory B cells (CD27+ IgM- IgD- as % B) ([9]; P=0.06 vs control, FIG. 11A-C): Strong trends to a specific reduction
Levels of plasmablasts ([9]; P=0.07 vs control clozapine naive, FIG. 15A-C): Strong trends to reduction
Failed to develop an IgG response above >=50 mg/L following Pneumovax II [10]: 73%
Failing to exceed the >=0.1 IU/mL post-vaccination Tetanus-IgG level [10]: 1/12
Failing to mount a Haemophilus-IgG response >=1 mcg/ml post-Menitorix (HiB/MenC) vaccination [10]: 42%
IgG to Haemophilus influenza B (HiB) <1 mcg/ml at initial assessment, patients [10]: 75%
Pneumococcus-IgG <50 mg/L at initial assessment, patients [10]: 94%
Response to haemophilus and/or pneumococcal vaccination, individual referred patient [10]: Failure to responds to; also recorded: Durable pneumococcal; also recorded: Non-durable
Responses to vaccination impaired, patients / patients assessed [10]: 10/11
Tetanus-IgG <0.1 IU/mL at initial assessment, patients [10]: 38%
IgG-Haemophilus B <1.0 mcg/ml, percentage of patients [11]: 51% and 51.2% and 51.1% and 49.4% and 50.9%
IgG-Pneumococcus <35 mg/L, percentage of patients [11]: 39.0% and 38.3% and 37.9% and 45.6%
IgG-Pneumococcus <50 mg/L, percentage of patients [11]: 52.1% and 50.6% and 54.4%
IgG-Tetanus <0.1 IU/ml, percentage of patients [11]: 10.6% and 11.5% and 12.3%
IgM-Pneumococcus, mean [11]: 58.5 U/L and 59.8 U/L and 60.4 U/L and 61.6 U/L
Pneumococcal IgM level [11]: 58.5 U/ml
Serum IgA and IgM following cessation of clozapine ([12]; FIG. 5 / one patient over 24 months): without clear improvement; also recorded: remained low
Serum IgA, individual referred patient [12, 16]: IgA 0.54 g/L; also recorded: IgA < 0.22 g/L; also recorded: IgA 0.49 g/L; also recorded: IgA 0.38 g/L; also recorded: undetectable; also recorded: IgA 0.26 g/L; also recorded: IgA 0.81 g/L; also recorded: IgA 0.63 g/L
Serum IgM, individual referred patient [12, 16]: IgM 0.3 g/L; also recorded: IgM < 0.17 g/L; also recorded: IgM 0.41 g/L; also recorded: IgM 0.23 g/L; also recorded: IgM 0.07 g/L; also recorded: IgM 0.18 g/L
Serum IgG, individual referred patient ([12]; one line per patient of Table 3 (clozapine dose and duration differ)): IgG 4.8 g/L; also recorded: IgG < 1.34 g/L; also recorded: IgG 5.24 g/L; also recorded: IgG 2.68 g/L; also recorded: IgG 2.98 g/L; also recorded: IgG 1.2 g/L; also recorded: IgG 3.3 g/L; also recorded: IgG 2.38 g/L; also recorded: IgG 4.24 g/L; also recorded: IgG 6.65 g/L; also recorded: IgG 5.61 g/L; also recorded: IgG 4.79 g/L
Serum IgG after clozapine stopped ([12]; one patient): IgG rose to 5.95 from g/L
Serum IgG after clozapine stopped ([12]; one patient, listed as clozapine): 5.95 g/L
Serum IgA after clozapine stopped ([12]; one patient, after 24 months): 0.29
Serum IgM after clozapine stopped ([12]; one patient, after 24 months): 0.49 after 24 months
Serum IgG after clozapine stopped, intermediate value ([12]; one patient, within the 24 months after discontinuation): 4.8 g/L
Serum IgG post-discontinuation of clozapine ([12]; over three years (FIG. 5)): 5.95 g/L
Mean serum IgA ([12]; referred patients on clozapine): 0.34 g/L
Mean serum IgG ([12]; referred patients on clozapine): 3.6 g/L
Mean serum IgM ([12]; referred patients on clozapine): 0.21 g/L
Serum IgG at discontinuation of clozapine [12]: 3.3 g/L
Serum IgG at discontinuation of clozapine ([12]; listed as clozapine): 3.5 g/L and 3.3 g/L
Proportions of CD4+PD1+CXCR5+ T follicular helper cells in lymph node or spleen ([13]; 5 or 10 mg/kg from day 1 or day 15): did not significantly affect
Expression of PD-1 (MFI) in lymph node T follicular helper cells ([13]; all doses and time points): Reduced expression
Expression of CD25 on Tregs ([13]; dosed from day 1): significantly upregulate
Foxp3 expression on Tregs ([13]; dosed from day 1): not alter
CXCR5 expression (MFI) on T follicular helper cells ([13]; dosed from day 1, lymph node and spleen): significant reductions
Proportion of CD4+CD25+Foxp3+ T regulatory cells (Tregs) ([13]; higher dose tested, from day 1, lymph node and spleen): increase the proportion
Expression of CCR7 on T follicular helper cells ([13]; lymph node and spleen): reduced expression
Swelling of the first affected paw ([14]; 10 mg/kg from day 1): reduced
Onset of arthritis post-immunisation ([14]; 5 or 10 mg/kg IP daily from day 1 or day 15): significantly effective in delaying the onset of arthritis
Arthritis onset, treatment from day 1 ([14]; both doses (5, 10 mg/kg) from day 1): extremely effective in delaying arthritis onset
Overall clinical score ([14]; both doses, administered on day 1): reduced
Incidence of CIA ([14]; most apparent when dosed just after CII immunisation, FIG. 26): reduces the incidence
Total number of affected paws compared to vehicle control ([14]; significant with dosing at D1): reduced
